According to US10844032B2, “Substituted benzofuran, benzothiophene and indole Mcl-1 inhibitors” (Vanderbilt University, priority 2012, dated 2020):

Molecular target: recombinant Mcl-1 (residues 172-327) (Homo sapiens (Human), UniProt Q07820)
Assay: Bak peptide fluorescence polarization anisotropy competition assay, Mcl-1
Assay type: binding
Details: Table 2, Ki range; FITC-Bak peptide 10 nM, Mcl-1 14 nM; read-out: Ki for inhibition of Mcl-1

Chain of recombinant Mcl-1 (residues 172-327) (Q07820 172-327): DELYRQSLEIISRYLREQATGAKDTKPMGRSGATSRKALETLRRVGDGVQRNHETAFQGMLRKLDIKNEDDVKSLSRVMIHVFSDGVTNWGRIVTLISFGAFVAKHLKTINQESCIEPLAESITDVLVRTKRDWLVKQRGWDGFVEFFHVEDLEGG

`Cc1cc(OCCCc2c(C(=O)NS(=O)(=O)c3ccccc3)[nH]c3c(-c4ccsc4C)cccc23)cc(C)c1Cl` [Example 98, 3-(3-(4-chloro-3,5-dimethylphenoxy)propyl)-7-(2-methylthiophen-3-yl)-N-(phenylsulfonyl)-1H-indole-2-carboxamide] and `Cc1cc(OCCCc2c(C(=O)NS(=O)(=O)CCNC(=O)C(C)C)[nH]c3cc(Cl)ccc23)cc(C)c1Cl` [Example 253, 6-chloro-3-(3-(4-chloro-3,5-dimethylphenoxy)propyl)-N-((2-isobutyramidoethyl)sulfonyl)-1H-indole-2-carboxamide] cannot be ordered by Ki: at most 100 nM for the first, at most 100 nM for the second.

Same assay, conditions: read-out: Ki for inhibition of Mcl-1

First: Cc1cc(OCCCc2c(C(=O)NS(=O)(=O)CCNC(=O)C34CC5CC(CC(C5)C3)C4)[nH]c3ccccc23)cc(C)c1Cl [Example 180, N-((2-((3r,5r,7r)-adamantane-1-carboxamido)ethyl)sulfonyl)-3-(3-(4-chloro-3,5-dimethylphenoxy)propyl)-1H-indole-2-carboxamide]
Second: Cc1cc(OCCCc2c(C(=O)NS(=O)(=O)CCNC(=O)CC3CCCCC3)[nH]c3ccccc23)cc(C)c1Cl [Example 152, 3-(3-(4-chloro-3,5-dimethylphenoxy)propyl)-N-((2-(2-cyclohexylacetamido)ethyl)sulfonyl)-1H-indole-2-carboxamide]
The Ki of the first is lower: 101 to 299 nM for the first, 1000 to 9990 nM for the second.

`Cc1ccc(C(=O)NCCS(=O)(=O)NC(=O)c2[nH]c3ccccc3c2CCCOc2cc(C)c(Cl)c(C)c2)o1` [Example 157, 3-(3-(4-chloro-3,5-dimethylphenoxy)propyl)-N-((2-(5-methylfuran-2-carboxamido)ethyl)sulfonyl)-1H-indole-2-carboxamide] and `Cc1cc(OCCCc2c(C(=O)NS(=O)(=O)CCNC(=O)c3ccco3)[nH]c3ccccc23)cc(C)c1Cl` [Example 171, 3-(3-(4-chloro-3,5-dimethylphenoxy)propyl)-N-((2-(furan-2-carboxamido)ethyl)sulfonyl)-1H-indole-2-carboxamide] fall in the same range of Ki: 101 to 299 nM for the first, 101 to 299 nM for the second.

`CS(=O)(=O)NC(=O)c1[nH]c2cc(Cl)ccc2c1CCCOc1ccc(Cl)c(Cl)c1` [Example 105, 6-chloro-3-(3-(3,4-dichlorophenoxy)propyl)-N-(methylsulfonyl)-1H-indole-2-carboxamide] and `CS(=O)(=O)NC(=O)c1[nH]c2cc(Cl)ccc2c1CCCOc1ccccc1Br` [Example 107, 3-(3-(2-bromophenoxy)propyl)-6-chloro-N-(methylsulfonyl)-1H-indole-2-carboxamide] fall in the same range of Ki: 1000 to 9990 nM for the first, 1000 to 9990 nM for the second.

Compared with `Cc1cc(OCCCc2c(C(=O)NS(=O)(=O)CCNC(=O)Cc3ccc(Br)cc3)[nH]c3ccccc23)cc(C)c1Cl` [Example 169, N-((2-(2-(4-bromophenyl)acetamido)ethyl)sulfonyl)-3-(3-(4-chloro-3,5-dimethylphenoxy)propyl)-1H-indole-2-carboxamide], `Cc1cc(OCCCc2c(C(=O)NS(=O)(=O)CCNC(=O)c3ccncc3)[nH]c3ccccc23)cc(C)c1Cl` [Example 153, 3-(3-(4-chloro-3,5-dimethylphenoxy)propyl)-N-((2-(isonicotinamido)ethyl)sulfonyl)-1H-indole-2-carboxamide] is higher in Ki: 301 to 500 nM for the first, 1000 to 9990 nM for the second. The first binds more tightly here.

`CC(=O)N1CCN(c2ccc(OCc3nn(C)c(C)c3-c3cccc4c(CCCOc5cc(C)c(Cl)c(C)c5)c(C(=O)NS(C)(=O)=O)n(Cc5cccnc5)c34)cc2)CC1` [Example 125, 7-(3-((4-(4-acetylpiperazin-1-yl)phenoxy)methyl)-1,5-dimethyl-1H-pyrazol-4-yl)-3-(3-(4-chloro-3,5-dimethylphenoxy)propyl)-N-(methylsulfonyl)-1-(pyridin-3-ylmethyl)-1H-indole-2-carboxamide] and `COCc1nn(C)c(C)c1-c1cccc2c(CCCOc3cc(C)c(Cl)c(C)c3)c(C(=O)NS(=O)(=O)c3ccccc3)n(C)c12` [Example 129, 3-(3-(4-chloro-3,5-dimethylphenoxy)propyl)-7-(3-(methoxymethyl)-1,5-dimethyl-1H-pyrazol-4-yl)-1-methyl-N-(phenylsulfonyl)-1H-indole-2-carboxamide] fall in the same range of Ki: 101 to 299 nM for the first, 101 to 299 nM for the second.

First: Cc1cc(OCCCc2c(C(=O)NS(C)(=O)=O)[nH]c3ccccc23)ccc1Cl [Example 20, 3-(3-(4-chloro-3-methylphenoxy)propyl)-N-(methylsulfonyl)-1H-indole-2-carboxamide]
Second: Cc1cc(OCCCc2c(C(=O)NS(C)(=O)=O)[nH]c3ccccc23)cc(C)c1Cl [Example 29, 3-(3-(4-chloro-3,5-dimethylphenoxy)propyl)-N-(methylsulfonyl)-1H-indole-2-carboxamide]
The Ki of the first is lower: 301 to 500 nM for the first, 501 to 999 nM for the second.

`Cc1cc(OCCCc2c(C(=O)NS(=O)(=O)c3ccccc3)[nH]c3c(-c4cccs4)cccc23)cc(C)c1Cl` [Example 95, 3-(3-(4-chloro-3,5-dimethylphenoxy)propyl)-N-(phenylsulfonyl)-7-(thiophen-2-yl)-1H-indole-2-carboxamide] and `Cc1cc(OCCCc2c(C(=O)NS(=O)(=O)c3ccccc3)[nH]c3c(-c4cccnc4)cccc23)cc(C)c1Cl` [Example 93, 3-(3-(4-chloro-3,5-dimethylphenoxy)propyl)-N-(phenylsulfonyl)-7-(pyridin-3-yl)-1H-indole-2-carboxamide] fall in the same range of Ki: 101 to 299 nM for the first, 101 to 299 nM for the second.

First: CS(=O)(=O)NC(=O)c1[nH]c2cc(Br)ccc2c1CCCOc1cccc2ccccc12 [Example 114, 6-bromo-N-(methylsulfonyl)-3-(3-(naphthalen-1-yloxy)propyl)-1H-indole-2-carboxamide]
Second: CS(=O)(=O)NC(=O)c1[nH]c2ccc(Cl)cc2c1CCCOc1cccc2ccccc12 [Example 111, 5-chloro-N-(methylsulfonyl)-3-(3-(naphthalen-1-yloxy)propyl)-1H-indole-2-carboxamide]
The Ki of the first is lower: 301 to 500 nM for the first, 1000 to 9990 nM for the second.

First: O=C(CCc1ccccc1)NCCS(=O)(=O)NC(=O)c1[nH]c2cc(Cl)ccc2c1CCCOc1cccc2ccccc12 [Example 240, 6-chloro-3-(3-(naphthalen-1-yloxy)propyl)-N-((2-(3-phenylpropanamido)ethyl)sulfonyl)-1H-indole-2-carboxamide]
Second: Cc1cc(OCCCc2c(C(=O)NS(=O)(=O)CCNC(=O)c3cccn3Cc3ccccc3)[nH]c3cc(Cl)ccc23)cc(C)c1Cl [Example 241, N-((2-(1-benzyl-1H-pyrrole-2-carboxamido)ethyl)sulfonyl)-6-chloro-3-(3-(4-chloro-3,5-dimethylphenoxy)propyl)-1H-indole-2-carboxamide]
The Ki of the first is higher: 301 to 500 nM for the first, 101 to 299 nM for the second.

`O=C(NS(=O)(=O)C(F)(F)F)c1cc2ccccc2n1CCCOc1cccc2ccccc12` [Example 15, 1-(3-(naphthalen-1-yloxy)propyl)-N-((trifluoromethyl)sulfonyl)-1H-indole-2-carboxamide] and `Cc1cc(OCCCc2c(C(=O)NS(=O)(=O)CCc3ccccc3)[nH]c3ccccc23)cc(C)c1Cl` [Example 140, 3-(3-(4-chloro-3,5-dimethylphenoxy)propyl)-N-(phenethylsulfonyl)-1H-indole-2-carboxamide] fall in the same range of Ki: 501 to 999 nM for the first, 501 to 999 nM for the second.

First: Cc1cc(OCCCc2c(C(=O)NS(=O)(=O)C3CCN(C(=O)c4cccc(Oc5ccccc5)c4)CC3)[nH]c3cc(Cl)ccc23)cc(C)c1Cl [Example 213, 6-chloro-3-(3-(4-chloro-3,5-dimethylphenoxy)propyl)-N-((1-(3-phenoxybenzoyl)piperidin-4-yl)sulfonyl)-1H-indole-2-carboxamide]
Second: Cc1cc(OCCCc2c(C(=O)NS(=O)(=O)CCNC(=O)c3cccc(Oc4ccccc4)c3)[nH]c3cc(Cl)ccc23)cc(C)c1Cl [Example 231, 6-chloro-3-(3-(4-chloro-3,5-dimethylphenoxy)propyl)-N-((2-(3-phenoxybenzamido)ethyl)sulfonyl)-1H-indole-2-carboxamide]
The Ki of the first is higher: 301 to 500 nM for the first, 101 to 299 nM for the second. The second binds more tightly here.

First: Cc1cc(OCCCc2c(C(=O)NS(=O)(=O)CCNC(=O)c3ccc4[nH]ccc4c3)[nH]c3ccccc23)cc(C)c1Cl [Example 178, N-((2-(1H-indole-5-carboxamido)ethyl)sulfonyl)-3-(3-(4-chloro-3,5-dimethylphenoxy)propyl)-1H-indole-2-carboxamide]
Second: Cc1cc(OCCCc2c(C(=O)NS(=O)(=O)CCNC(=O)c3cn[nH]c3)[nH]c3ccccc23)cc(C)c1Cl [Example 182, N-((2-(1H-pyrazole-4-carboxamido)ethyl)sulfonyl)-3-(3-(4-chloro-3,5-dimethylphenoxy)propyl)-1H-indole-2-carboxamide]
The Ki of the first is lower: 101 to 299 nM for the first, 1000 to 9990 nM for the second. The first binds more tightly here.

First: Cc1cc(OCCCc2c(C(=O)NS(=O)(=O)CCNC(=O)c3cnco3)[nH]c3ccccc23)cc(C)c1Cl [Example 188, N-(2-(N-(3-(3-(4-chloro-3,5-dimethylphenoxy)propyl)-1H-indole-2-carbonyl)sulfamoyl)ethyl)oxazole-5-carboxamide]
Second: Cc1cc(OCCCc2c(C(=O)NS(=O)(=O)CCNS(=O)(=O)C3CCCCC3)[nH]c3ccccc23)cc(C)c1Cl [Example 149, 3-(3-(4-chloro-3,5-dimethylphenoxy)propyl)-N-((2-(cyclohexanesulfonamido)ethyl)sulfonyl)-1H-indole-2-carboxamide]
The Ki of the first is higher: 1000 to 9990 nM for the first, 101 to 299 nM for the second.

`Cc1cc(OCCCc2c(C(=O)NS(C)(=O)=O)[nH]c3cc(C(F)(F)F)ccc23)ccc1Cl` [Example 77, 3-(3-(4-chloro-3-methylphenoxy)propyl)-N-(methylsulfonyl)-6-(trifluoromethyl)-1H-indole-2-carboxamide] and `Cc1cc(OCCCc2c(C(=O)NS(C)(=O)=O)[nH]c3cc(C(F)(F)F)ccc23)cc(C)c1Cl` [Example 78, 3-(3-(4-chloro-3,5-dimethylphenoxy)propyl)-N-(methylsulfonyl)-6-(trifluoromethyl)-1H-indole-2-carboxamide] fall in the same range of Ki: 301 to 500 nM for the first, 301 to 500 nM for the second.

Work on `Cc1cc(OCCCc2c(C(=O)NS(=O)(=O)CCNC(=O)c3ccc4c(ccn4C)c3)[nH]c3cc(Cl)ccc23)cc(C)c1Cl` [Example 236, 6-chloro-3-(3-(4-chloro-3,5-dimethylphenoxy)propyl)-N-((2-(1-methyl-1H-indole-5-carboxamido)ethyl)sulfonyl)-1H-indole-2-carboxamide] yielded a Ki of 101 to 299 nM.
